Experimental data as given in ChEMBL document CHEMBL1201862, “PubChem BioAssay data set” (2004).
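1) Cells in 96-well plates. 2) Compound, 48 h, 5 concentrations. 3) Linear interpolation between surrounding doses. 4) Unreached endpoint = highest concentration. GI50 = concentration required for 50% inhibition of growth.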 Activity calls are given as the source filed them. No stated cut-off is given here; in the data, active = GI50 up to about 1.1 µM and inactive = higher.

Key:
Experiment in all cases: NCI tumour cell line growth inhibition, 48 h
[1] = system: 786-0
[2] = system: A498
[3] = system: A549
[4] = system: ACHN
[5] = system: CCRF-CEM
[6] = system: COLO 205
[7] = system: DLD-1
[8] = system: DMS-114
[9] = system: DMS-273
[10] = system: EKVX
[11] = system: HCC 2998
[12] = system: HCT-116
[13] = system: HCT-15
[14] = system: HL-60
[15] = system: HOP-18
[16] = system: HOP-62
[17] = system: HOP-92
[18] = system: HT-29
[19] = system: IGROV-1
[20] = system: K562
[21] = system: KM-20L2
[22] = system: KM12
[23] = system: LOX IMVI
[24] = system: LXFL 529
[25] = system: M14
[26] = system: M19-MEL
[27] = system: MOLT-4
[28] = system: Malme-3M
[29] = system: NCI-H226
[30] = system: NCI-H23
[31] = system: NCI-H460
[32] = system: NCI-H522
[33] = system: OVCAR-3
[34] = system: OVCAR-4
[35] = system: OVCAR-8
[36] = system: RPMI-8226
[37] = system: RXF 393
[38] = system: SF-268
[39] = system: SF-295
[40] = system: SF-539
[41] = system: SK-MEL-28
[42] = system: SK-MEL-2
[43] = system: SK-OV-3
[44] = system: SN12C
[45] = system: SNB-19
[46] = system: SNB-75
[47] = system: SNB-78
[48] = system: SR
[49] = system: SW-620
[50] = system: TK-10
[51] = system: U-251
[52] = system: UACC-257
[53] = system: UACC-62
[54] = system: UO-31
[55] = system: XF498

COc1ccc(-c2nnc(-c3c(C)n(C)n(-c4ccccc4)c3=O)o2)cc1
GI50 [1]: > 100 µM (inactive)
GI50 [2]: > 100 µM (inactive)
GI50 [3]: > 100 µM (inactive)
GI50 [4]: > 100 µM (inactive)
GI50 [5]: > 100 µM (inactive)
GI50 [6]: > 100 µM (inactive)
GI50 [7]: > 100 µM (inactive)
GI50 [8]: > 100 µM (inactive)
GI50 [9]: > 100 µM (inactive)
GI50 [10]: > 100 µM (inactive)
GI50 [11]: > 100 µM (inactive)
GI50 [12]: > 100 µM (inactive)
GI50 [13]: > 100 µM
GI50 [14]: > 100 µM (inactive)
GI50 [15]: > 100 µM (inactive)
GI50 [16]: > 100 µM (inactive)
GI50 [17]: > 100 µM (inactive)
GI50 [18]: > 100 µM (inactive)
GI50 [19]: > 100 µM (inactive)
GI50 [20]: > 100 µM (inactive)
GI50 [21]: > 100 µM (inactive)
GI50 [22]: > 100 µM (inactive)
GI50 [23]: > 100 µM (inactive)
GI50 [24]: > 100 µM (inactive)
GI50 [25]: > 100 µM (inactive)
GI50 [26]: > 100 µM (inactive)
GI50 [27]: > 100 µM (inactive)
GI50 [28]: > 100 µM (inactive)
GI50 [29]: > 100 µM (inactive)
GI50 [30]: > 100 µM (inactive)
GI50 [31]: > 100 µM (inactive)
GI50 [32]: > 100 µM (inactive)
GI50 [33]: > 100 µM (inactive)
GI50 [34]: > 100 µM (inactive)
GI50 [35]: > 100 µM (inactive)
GI50 [36]: > 100 µM (inactive)
GI50 [37]: > 100 µM (inactive)
GI50 [38]: > 100 µM (inactive)
GI50 [39]: > 100 µM (inactive)
GI50 [40]: > 100 µM (inactive)
GI50 [41]: > 100 µM (inactive)
GI50 [42]: > 100 µM (inactive)
GI50 [43]: > 100 µM (inactive)
GI50 [44]: > 100 µM (inactive)
GI50 [45]: > 100 µM (inactive)
GI50 [46]: > 100 µM (inactive)
GI50 [47]: 68.7 µM (inactive)
GI50 [48]: > 100 µM (inactive)
GI50 [49]: > 100 µM (inactive)
GI50 [50]: > 100 µM (inactive)
GI50 [51]: > 100 µM (inactive)
GI50 [52]: > 100 µM (inactive)
GI50 [53]: > 100 µM (inactive)
GI50 [54]: > 100 µM (inactive)
GI50 [55]: > 100 µM (inactive)
